Data set [1] addresses T1, aqueous (water-solubilized) GPx4 (Homo sapiens, UniProt P36969, U73G).
T1 construct: Truncated U46G-GPx4 with a TEV cleavable poly-histidine tag was inserted into vector; poly-histidine tag with TEV cleavage site; host or cells: BL21 (DE3) E. coli
T1 sequence (P36969 1-170 isoform P36969-2 U46G): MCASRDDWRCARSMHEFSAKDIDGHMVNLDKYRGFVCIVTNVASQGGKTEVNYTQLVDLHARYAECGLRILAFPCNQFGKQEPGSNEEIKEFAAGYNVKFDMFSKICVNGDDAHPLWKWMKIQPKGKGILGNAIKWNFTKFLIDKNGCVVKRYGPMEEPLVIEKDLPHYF
The data set can be described thus: 15N-HSQC CSP binding experiment with GPx4 in bulk aqueous conditions. The note with it: for Binding to aqueous GPx4 (CSPs versus mmRM): 400 μM fragment, 100 μM GPx4, 1% DMSO; for Binding to aqueous GPx4 (CSPs): 15 mM fragment, 100 μM GPx4, 5% DMSO. The procedure: Next, we sought to understand whether fragment hits were solely bound to the membrane-embedded form of GPx4 or could also bind to the aqueous form. We performed aqueous binding experiments with 3 fragment hits with varying hydrophobicities. Of the fragment hits with Kd < 1 mM, the most hydrophobic fragment (fragment 5, cLog D 2.05, 5-hydroxy-1,3-benzoxathiol-2-one) and a hydrophilic fragment with the strongest affinity (fragment 6, cLog D −2.14, (2-methoxyethyl)(4-pyridinylmethyl)amine hydrochloride) were selected, along with a compound with an amphipathic structure and only modest hydrophobicity (fragment 1, cLog D 1.05, 4-(phenylamino)-1,2-dihydropyridin-2-one). Aqueous GPx4 was combined with 400 μM of either fragments 1, 5, or 6 to directly compare to the mmRM experiments. […] Since our fragments have variable degrees of solubility and partitioning, we realized that a hydrophilic fragment like 6 may partition into the water core of the mmRM, essentially causing a concentration effect as observed previously.[32],[33] To rule this out, the concentration of the fragments was increased to 15 mM in an aqueous sample, which would be the effective concentration if all of the fragments partitioned completely into the RM water core. […] DLS measurements were also collected to check for fragment aggregation in the aqueous conditions.[58] […] Inspection of ^1H NMR spectra confirmed that the aggregation observed at high concentration of fragments 1 and 5 is a small portion of the overall fragment concentration and that most of the fragment is in solution.
Fragments 1, 5, and 6 were selected to perform proof-of-concept experiments in bulk aqueous conditions. 400 μM and 15 mM aliquots of fragment were vacuum-dried overnight to remove excess DMSO. An apo GPx4 reference was collected with 1% DMSO or 5% DMSO to ensure that CSP calculations took into account DMSO needed for fragment solubilization. 100 μM GPx4 was added to the dried fragments, and DMSO was added to a total of 1% for the 400 μM and 5% for the 15 mM fragment experiments. These percentages were the lowest amounts needed to solubilize the fragments in solution. Prior to experimentation, the pH of the sample was checked to ensure that no change was observed upon the addition of the fragments. However, the 100 mM Bis-Tris at pH 6.0 ensured that the pH was not altered. ^15N-HSQC experiments were collected, and CSPs were analyzed and compared to the top-shifting resonances determined from the mmRM experiments. DLS measurements were collected to assess fragment aggregation in the aqueous conditions using a Malvern Zetasizer Nano-S instrument.

The nature of data set [2]: Fragment partitioning in DHPC/DMPC bicelles by 2D 1H-1H NOESY. It is filed as physicochemical. The note with it: 5 mM fragment, 100% D2O. The text has this:
To confirm partitioning behavior, we tested fragments in DHPC/DMPC bicelles, which use a bulk aqueous solvent, and the hydrophobic phase is confined to the bicelle interior. To successfully collect NOESY data, the sample solvent was composed of 100% D2O. […] Together, the results highlight the partitioning behavior of fragments that bind to GPx4. Hydrophilic, hydrophobic, or fragments that partition to the surfactant shell are all capable of binding to the membrane-bound state of GPx4 and may be detected using this method.
Partitioning coefficients for fragment hits and analogues were calculated using a Marvin Log D calculator (Chemaxon) and were used to prioritize fragments for 2D NOESYs. mmRMs were premade as previously described and loaded with 5 mM dried fragment 1, 5, or 6 before shaking overnight. A high concentration of fragments is needed for these experiments to observe the intermolecular NOEs between the fragments and the membrane model components. For the DHPC/DMPC samples, the q = 1.0 bicelles were constructed routinely,[55] as described in the Supporting Information, with an additional step to ensure the complete removal of water before experimentation. An aliquot of buffer (100 mM Bis-Tris pH 6.0, 100 mM NaCl, and 10 mM DTT) was frozen and freeze-dried overnight to remove residual water. The dried buffer was then resuspended in 100% D2O, mixed, and frozen before another round of freeze-drying. The components were then resuspended in 100% D2O again before being incorporated into the DHPC fraction of the bicelle. The DHPC solution was then mixed with dried DMPC, and bicelle formation proceeded. The NOESY experimental design was based on a previous work.[60] All NMR spectra were collected at 25 °C on a 700 MHz Bruker Avance III instrument. The 2D data was collected with a 90° pulse width between 10.2 and 11.0 μs, which was optimized prior to each experiment. 128 complex increments were collected in the State-TPPI mode with 8 scans per increment, 2 s recycle time, and 250 ms mixing time. […]

Data set [3] can be described thus: DLS check for fragment aggregation in aqueous conditions. The note with it: 15 mM, 5% DMSO. It is filed as physicochemical. The procedure:
Next, we sought to understand whether fragment hits were solely bound to the membrane-embedded form of GPx4 or could also bind to the aqueous form. We performed aqueous binding experiments with 3 fragment hits with varying hydrophobicities. Of the fragment hits with Kd < 1 mM, the most hydrophobic fragment (fragment 5, cLog D 2.05, 5-hydroxy-1,3-benzoxathiol-2-one) and a hydrophilic fragment with the strongest affinity (fragment 6, cLog D −2.14, (2-methoxyethyl)(4-pyridinylmethyl)amine hydrochloride) were selected, along with a compound with an amphipathic structure and only modest hydrophobicity (fragment 1, cLog D 1.05, 4-(phenylamino)-1,2-dihydropyridin-2-one). Aqueous GPx4 was combined with 400 μM of either fragments 1, 5, or 6 to directly compare to the mmRM experiments. […] Since our fragments have variable degrees of solubility and partitioning, we realized that a hydrophilic fragment like 6 may partition into the water core of the mmRM, essentially causing a concentration effect as observed previously.[32],[33] […]
Fragments 1, 5, and 6 were selected to perform proof-of-concept experiments in bulk aqueous conditions. […] However, the 100 mM Bis-Tris at pH 6.0 ensured that the pH was not altered. ^15N-HSQC experiments were collected, and CSPs were analyzed and compared to the top-shifting resonances determined from the mmRM experiments. […]

The values below come from publication PMC11267533, “Ligandability at the Membrane Interface of GPx4 Revealed through a Reverse Micelle Fragment Screening Platform” (JACS Au, 2024).

Turning to `COCCNCc1ccncc1.Cl` [Fragment 6, (2-methoxyethyl)(4-pyridinylmethyl)amine hydrochloride], in data set [1], the “Binding to aqueous GPx4 (CSPs versus mmRM)” value was “do not bind strongly to the aqueous form of the protein” and the “Binding to aqueous GPx4 (CSPs)” value is recorded as “neither produced significant CSPs”. The “Partitioning in bicelles (intermolecular NOEs)” value in data set [2] is “no NOE cross-peaks to bicelle surfactants were observed”.
As to `O=c1cc(Nc2ccccc2)cc[nH]1` [Fragment 1, 4-(phenylamino)-1,2-dihydropyridin-2-one], in data set [1], the “Binding to aqueous GPx4 (CSPs versus mmRM)” value is “do not bind strongly to the aqueous form of the protein” and the “Binding to aqueous GPx4 (CSPs)” value was “neither produced significant CSPs”. In addition, the “Partitioning in bicelles (intermolecular NOEs)” value in data set [2] was “partitions to the bicelle”. In data set [3], the “Fragment aggregation by DLS” value is “a small population of large aggregating species”.
The matching figures for `O=c1oc2ccc(O)cc2s1` [Fragment 5, 5-hydroxy-1,3-benzoxathiol-2-one]: “do not bind strongly to the aqueous form of the protein”, “does produce some CSPs that could be detected by a soluble screen”, “full partitioning into the hydrophobic core of the bicelles” and “a small population of large aggregating species”.
As to `O=c1oc2c(-c3ccc(Cl)c(Cl)c3)cc(O)cc2s1` [Analog 5.5], in data set [1] (400 μM analogue, 1.5% DMSO), the “CSPs of aqueous GPx4” value is reported as “little to no shifting”.
